{
  "source": "patent US8802597B2",
  "about": "“Herbicidal pyrimidines” (E I du Pont de Nemours and Company, priority 2003, dated 2014)",
  "type_in_all_cases": "in vivo",
  "key": {"[1]": {"system": "wheat (Triticum aestivum)", "assay": "Test B pre/postemergence", "source_text": "(§1) Seeds selected from barnyardgrass (Echinochloa crus-galli), Surinam grass (Brachiaria decumbens), cocklebur (Xanthium strumarium), corn (Zea mays), crabgrass (Digitaria sanguinalis), giant foxtail (Setaria faberii), lambsquarters (Chenopodium album), morningglory (Ipomoea coccinea), pigweed (Amaranthus retroflexus), velvetleaf (Abutilon theophrasti), and wheat (Triticum aestivum) were planted and treated preemergence with test chemicals formulated in a non-phytotoxic solvent mixture which included a surfactant.\n(§2) At the same time, plants selected from these crop and weed species and also blackgrass (Alopecurus myosuroides) and wild oat (Avena fatua) were treated with postemergence applications of test chemicals formulated in the same manner. Plants ranged in height from 2 to 18 cm (1- to 4-leaf stage) for postemergence treatments. Plant species in the flooded paddy test consisted of rice (Oryza sativa), umbrella sedge (Cyperus difformis), duck salad (Heteranthera limosa) and barnyardgrass (Echinochloa crus-galli) grown to the 2-leaf stage for testing. Treated plants and controls were maintained in a greenhouse for 13 to 15 days, after which time all species were compared to controls and visually evaluated. Plant response ratings, summarized in Table B, are based on a scale of 0 to 100 where 0 is no effect and 100 is complete control. A dash (-) response means no test result."}, "[2]": {"system": "cocklebur (Xanthium strumarium)", "assay": "Test B pre/postemergence", "source_text": "as §1, §2"}, "[3]": {"system": "velvetleaf (Abutilon theophrasti)", "assay": "Test B pre/postemergence", "source_text": "as §1, §2"}, "[4]": {"system": "giant foxtail (Setaria faberii)", "assay": "Test B pre/postemergence", "source_text": "as §1, §2"}, "[5]": {"system": "morningglory (Ipomoea coccinea)", "assay": "Test B pre/postemergence", "source_text": "as §1, §2"}, "[6]": {"system": "pigweed (Amaranthus retroflexus)", "assay": "Test B pre/postemergence", "source_text": "as §1, §2"}, "corn (Zea mays)": {"system": "corn (Zea mays)", "assay": "Test B pre/postemergence", "source_text": "as §1, §2"}, "[7]": {"system": "lambsquarters (Chenopodium album)", "assay": "Test B pre/postemergence", "conditions": "Postemergence; for Lambsquarters plant response rating: 125 g ai/ha, scale 0 to 100 (0 no effect, 100 complete control); for Plant response rating, Lambsquarters: 500 g ai/ha, scale 0 to 100", "source_text": "as §1, §2"}, "[8]": {"system": "barnyardgrass (Echinochloa crus-galli)", "assay": "Test B pre/postemergence", "source_text": "as §1, §2"}, "[9]": {"system": "Surinam grass (Brachiaria decumbens)", "assay": "Test B pre/postemergence", "source_text": "as §1, §2"}, "[10]": {"system": "crabgrass (Digitaria sanguinalis)", "assay": "Test B pre/postemergence", "source_text": "as §1, §2"}, "wild oat (Avena fatua)": {"system": "wild oat (Avena fatua)", "assay": "Test B postemergence", "conditions": "for Oat, Wild plant response rating: 125 g ai/ha, scale 0 to 100 (0 no effect, 100 complete control); for Plant response rating, Oat, Wild: 500 g ai/ha, scale 0 to 100", "source_text": "as §1, §2"}, "[11]": {"system": "blackgrass (Alopecurus myosuroides)", "assay": "Test B postemergence", "conditions": "for Blackgrass plant response rating: 125 g ai/ha, scale 0 to 100 (0 no effect, 100 complete control); for Plant response rating, Blackgrass: 500 g ai/ha, scale 0 to 100", "source_text": "as §1, §2"}, "[12]": {"conditions": "Postemergence, 125 g ai/ha, scale 0 to 100 (0 no effect, 100 complete control)"}, "[13]": {"conditions": "Postemergence, 500 g ai/ha, scale 0 to 100"}, "[14]": {"conditions": "Preemergence, 125 g ai/ha, scale 0 to 100 (0 no effect, 100 complete control)"}, "[15]": {"conditions": "Preemergence, 500 g ai/ha, scale 0 to 100 (0 no effect, 100 complete control)"}},
  "data": [
    {"smiles": "CCOC(=O)c1nc(C2CC2)nc(NNC(C)=O)c1Br", "note": "[Compound 126]", "values": [
      {"measurement": "Wheat plant response rating", "setting": "[1]; [12]", "value": 0},
      {"measurement": "Plant response rating, Wheat", "setting": "[1]; [13]", "value": 0},
      {"measurement": "Plant response rating, Wheat", "setting": "[1]; [14]", "value": 0},
      {"measurement": "Plant response rating, Wheat", "setting": "[1]; [15]", "value": 0},
      {"measurement": "Cocklebur plant response rating", "setting": "[2]; [12]", "value": 0},
      {"measurement": "Plant response rating, Cocklebur", "setting": "[2]; [13]", "value": 0},
      {"measurement": "Plant response rating, Cocklebur", "setting": "[2]; [14]", "value": 0},
      {"measurement": "Plant response rating, Cocklebur", "setting": "[2]; [15]", "value": 90},
      {"measurement": "Velvetleaf plant response rating", "setting": "[3]; [12]", "value": 10},
      {"measurement": "Plant response rating, Velvetleaf", "setting": "[3]; [13]", "value": 20},
      {"measurement": "Plant response rating, Velvetleaf", "setting": "[3]; [14]", "value": 10},
      {"measurement": "Plant response rating, Velvetleaf", "setting": "[3]; [15]", "value": 20},
      {"measurement": "Foxtail, Giant plant response rating", "setting": "[4]; [12]", "value": 0},
      {"measurement": "Plant response rating, Foxtail, Giant", "setting": "[4]; [13]", "value": 0},
      {"measurement": "Plant response rating, Foxtail, Giant", "setting": "[4]; [14]", "value": 0},
      {"measurement": "Plant response rating, Foxtail, Giant", "setting": "[4]; [15]", "value": 0},
      {"measurement": "Morningglory plant response rating", "setting": "[5]; [12]", "value": 30},
      {"measurement": "Plant response rating, Morningglory", "setting": "[5]; [13]", "value": 60},
      {"measurement": "Plant response rating, Morningglory", "setting": "[5]; [14]", "value": 0},
      {"measurement": "Plant response rating, Morningglory", "setting": "[5]; [15]", "value": 70},
      {"measurement": "Pigweed plant response rating", "setting": "[6]; [12]", "value": 0},
      {"measurement": "Plant response rating, Pigweed", "setting": "[6]; [13]", "value": 30},
      {"measurement": "Plant response rating, Pigweed", "setting": "[6]; [14]", "value": 20},
      {"measurement": "Plant response rating, Pigweed", "setting": "[6]; [15]", "value": 80},
      {"measurement": "Corn plant response rating", "setting": "corn (Zea mays); [12]", "value": 0},
      {"measurement": "Plant response rating, Corn", "setting": "corn (Zea mays); [13]", "value": 10},
      {"measurement": "Plant response rating, Corn", "setting": "corn (Zea mays); [14]", "value": 0},
      {"measurement": "Plant response rating, Corn", "setting": "corn (Zea mays); [15]", "value": 0},
      {"measurement": "Lambsquarters plant response rating", "setting": "[7]", "value": 30},
      {"measurement": "Plant response rating, Lambsquarters", "setting": "[7]", "value": 40},
      {"measurement": "Barnyardgrass plant response rating", "setting": "[8]; [12]", "value": 0},
      {"measurement": "Plant response rating, Barnyardgrass", "setting": "[8]; [13]", "value": 0},
      {"measurement": "Plant response rating, Barnyardgrass", "setting": "[8]; [14]", "value": 0},
      {"measurement": "Plant response rating, Barnyardgrass", "setting": "[8]; [15]", "value": 0},
      {"measurement": "Surinam Grass plant response rating", "setting": "[9]; [12]", "value": 0},
      {"measurement": "Plant response rating, Surinam Grass", "setting": "[9]; [13]", "value": 70},
      {"measurement": "Plant response rating, Surinam Grass", "setting": "[9]; [14]", "value": 0},
      {"measurement": "Plant response rating, Surinam Grass", "setting": "[9]; [15]", "value": 20},
      {"measurement": "Crabgrass plant response rating", "setting": "[10]; [12]", "value": 0},
      {"measurement": "Plant response rating, Crabgrass", "setting": "[10]; [13]", "value": 20},
      {"measurement": "Plant response rating, Crabgrass", "setting": "[10]; [14]", "value": 80},
      {"measurement": "Plant response rating, Crabgrass", "setting": "[10]; [15]", "value": 100},
      {"measurement": "Oat, Wild plant response rating", "setting": "wild oat (Avena fatua)", "value": 0},
      {"measurement": "Plant response rating, Oat, Wild", "setting": "wild oat (Avena fatua)", "value": 20},
      {"measurement": "Blackgrass plant response rating", "setting": "[11]", "value": 0},
      {"measurement": "Plant response rating, Blackgrass", "setting": "[11]", "value": 0}
    ]},
    {"smiles": "CCOC(=O)c1nc(C2CC2)nc(N2CCCC2)c1Br", "note": "[Compound 56]", "values": [
      {"measurement": "Wheat plant response rating", "setting": "[1]; [12]", "value": 0},
      {"measurement": "Plant response rating, Wheat", "setting": "[1]; [13]", "value": 0},
      {"measurement": "Plant response rating, Wheat", "setting": "[1]; [14]", "value": 0},
      {"measurement": "Plant response rating, Wheat", "setting": "[1]; [15]", "value": 0},
      {"measurement": "Cocklebur plant response rating", "setting": "[2]; [12]", "value": 0},
      {"measurement": "Plant response rating, Cocklebur", "setting": "[2]; [13]", "value": 20},
      {"measurement": "Plant response rating, Cocklebur", "setting": "[2]; [14]", "value": 0},
      {"measurement": "Plant response rating, Cocklebur", "setting": "[2]; [15]", "value": 30},
      {"measurement": "Velvetleaf plant response rating", "setting": "[3]; [12]", "value": 0},
      {"measurement": "Plant response rating, Velvetleaf", "setting": "[3]; [13]", "value": 0},
      {"measurement": "Plant response rating, Velvetleaf", "setting": "[3]; [14]", "value": 0},
      {"measurement": "Plant response rating, Velvetleaf", "setting": "[3]; [15]", "value": 30},
      {"measurement": "Foxtail, Giant plant response rating", "setting": "[4]; [12]", "value": 0},
      {"measurement": "Plant response rating, Foxtail, Giant", "setting": "[4]; [13]", "value": 0},
      {"measurement": "Plant response rating, Foxtail, Giant", "setting": "[4]; [14]", "value": 0},
      {"measurement": "Plant response rating, Foxtail, Giant", "setting": "[4]; [15]", "value": 0},
      {"measurement": "Morningglory plant response rating", "setting": "[5]; [12]", "value": 0},
      {"measurement": "Plant response rating, Morningglory", "setting": "[5]; [13]", "value": 50},
      {"measurement": "Plant response rating, Morningglory", "setting": "[5]; [15]", "value": 20},
      {"measurement": "Pigweed plant response rating", "setting": "[6]; [12]", "value": 50},
      {"measurement": "Plant response rating, Pigweed", "setting": "[6]; [13]", "value": 70},
      {"measurement": "Plant response rating, Pigweed", "setting": "[6]; [15]", "value": 80},
      {"measurement": "Corn plant response rating", "setting": "corn (Zea mays); [12]", "value": 0},
      {"measurement": "Plant response rating, Corn", "setting": "corn (Zea mays); [13]", "value": 0},
      {"measurement": "Plant response rating, Corn", "setting": "corn (Zea mays); [14]", "value": 0},
      {"measurement": "Plant response rating, Corn", "setting": "corn (Zea mays); [15]", "value": 0},
      {"measurement": "Lambsquarters plant response rating", "setting": "[7]", "value": 20},
      {"measurement": "Plant response rating, Lambsquarters", "setting": "[7]", "value": 30},
      {"measurement": "Barnyardgrass plant response rating", "setting": "[8]; [12]", "value": 0},
      {"measurement": "Plant response rating, Barnyardgrass", "setting": "[8]; [13]", "value": 30},
      {"measurement": "Plant response rating, Barnyardgrass", "setting": "[8]; [14]", "value": 0},
      {"measurement": "Plant response rating, Barnyardgrass", "setting": "[8]; [15]", "value": 0},
      {"measurement": "Surinam Grass plant response rating", "setting": "[9]; [12]", "value": 0},
      {"measurement": "Plant response rating, Surinam Grass", "setting": "[9]; [13]", "value": 0},
      {"measurement": "Plant response rating, Surinam Grass", "setting": "[9]; [14]", "value": 0},
      {"measurement": "Plant response rating, Surinam Grass", "setting": "[9]; [15]", "value": 0},
      {"measurement": "Crabgrass plant response rating", "setting": "[10]; [12]", "value": 0},
      {"measurement": "Plant response rating, Crabgrass", "setting": "[10]; [13]", "value": 0},
      {"measurement": "Plant response rating, Crabgrass", "setting": "[10]; [14]", "value": 0},
      {"measurement": "Plant response rating, Crabgrass", "setting": "[10]; [15]", "value": 0},
      {"measurement": "Oat, Wild plant response rating", "setting": "wild oat (Avena fatua)", "value": 0},
      {"measurement": "Plant response rating, Oat, Wild", "setting": "wild oat (Avena fatua)", "value": 20},
      {"measurement": "Blackgrass plant response rating", "setting": "[11]", "value": 0},
      {"measurement": "Plant response rating, Blackgrass", "setting": "[11]", "value": 20}
    ]}
  ]
}
